# Results as given in PubChem BioAssay AID2423 (Broad Institute, 2010).
# Records with an inconclusive call do not appear. Active and inactive are the calls of the source. The rule behind the calls is not given here.
# Tested on: C. albicans CaCi-8 + fluconazole, Alamar Blue growth, 48 h
# Assay: resistant C. albicans growth inhibition with fluconazole, dose response, CaCi-8 strain, Alamar Blue fluorescence (AID 2423)
row,Compound,EC50
1,CC(C)c1ccc2c(c1)C(N1CCNCC1)Cc1ccc(F)cc1S2 (stereo unspecified),7.17 µM
2,O=C(Nc1cccc(-c2cn3ccccc3n2)c1)c1cccc(Cl)c1,0.715 µM
3,COc1ccc(C(=O)NC(=S)NNC(=O)c2ccc(C)cc2)cc1,2.41 µM
4,O=c1oc2ccccc2c(O)c1Cc1cc(Cl)c2cccnc2c1O,2.75 µM
5,Nc1c(S(=O)(=O)c2cccc(Cl)c2)c2nc3ccccc3nc2n1/N=C/c1ccc(O)c(O)c1,6.49 µM
6,O=C(NNC1=C(C(=O)C(F)(F)F)CCC1)c1ccc(Br)cc1,0.79 µM
7,COc1cc(SC)ccc1C(=O)OCC(=O)NC1CC1,> 15 µM (inactive)
8,O=C(Nc1cccc2ccccc12)c1ccc([N+](=O)[O-])o1,0.726 µM
9,CC(C)(C)C(=O)NC(=S)NNC(=O)c1sc2ccccc2c1Cl,0.36 µM
10,COc1ccc(C(C(=O)NC2CCCCC2)N(Cc2cccs2)C(=O)Cc2c[nH]c3ccccc23)cc1 (stereo unspecified),> 15 µM (inactive)
11,Cc1cccc(NC(=S)NNC(=O)c2cc3c(s2)CCC(C)C3)c1C (stereo unspecified),1.37 µM
12,Nc1[nH]n2c(=O)cc(-c3ccccc3)nc2c1N=Nc1ccc(S(N)(=O)=O)cc1,3.06 µM
13,Cc1ccc(NC(=O)c2ccccc2NS(=O)(=O)c2ccc(Cl)s2)cc1,1.16 µM
14,COc1ccc(NC(=O)NC(C)c2ccccc2)cc1 (stereo unspecified),> 16 µM (inactive)
15,O=C(NC(Cc1ccccc1)C(=O)NCc1ccccn1)c1ccco1 (stereo unspecified),> 15 µM (inactive)
16,CCOC(=O)c1c(NC(=S)NCC2CCCO2)sc(C)c1C (stereo unspecified),< 0.12 µM
17,O=C(N/N=C/c1ccccc1O)c1cccc(C(F)(F)F)c1,1.84 µM
18,C[C@]12CC[C@H](O)C[C@@H]1CC[C@@H]1[C@@H]2CC[C@]2(C)C(=O)CC[C@@H]12,5.65 µM
19,O=C(N/N=C\c1c(O)ccc2ccccc12)c1cncc(Br)c1,0.689 µM

row,Compound,EC50
1,CCN(CC)c1ccc(/C=N/Nc2nc3ccccc3[nH]2)c(O)c1,0.621 µM
2,Cc1cccc(Cc2nnc(CCC(=O)N3CCCCC3c3nccs3)o2)c1 (stereo unspecified),> 16 µM (inactive)
3,CN1CCc2cc3c(c4c2C1Cc1ccccc1-4)OCO3 (stereo unspecified),> 15 µM (inactive)
4,Clc1ccccc1C(c1ccccc1)(c1ccccc1)n1ccnc1,0.133 µM
5,O=C(CCS(=O)(=O)c1ccc(Cl)cc1)Nc1nc(-c2ccncc2)cs1,0.709 µM
6,Cc1cc(Nc2ccccc2)nc(NCc2ccccc2)n1,3.35 µM
7,CC(C)NC(=S)N/N=C/c1ccc(C(C)(C)C)cc1,> 16 µM (inactive)
8,COc1cccc(-c2nnc(NC(=O)c3ccc4ncsc4c3)o2)c1,1.03 µM
9,Cc1cc(C)n(-c2nc(NCCN(C)C)c3c4c(sc3n2)CCCC4)n1,5.13 µM
10,CC(=O)Oc1c(-c2ccc(Br)o2)oc2ccccc2c1=O,4.2 µM
11,CCSc1nnc(-c2ccc(C)cc2)c2ccccc12,0.193 µM
12,C[C@@H]1CC[C@@]2(NC1)O[C@H]1C[C@H]3[C@@H]4CC=C5C[C@@H](O)CC[C@]5(C)[C@H]4CC[C@]3(C)[C@H]1[C@@H]2C,0.132 µM
13,CCC(=O)NC(c1ccc(C)cc1)c1cc([N+](=O)[O-])c2cccnc2c1O (stereo unspecified),0.513 µM
14,CCCOC(=O)/C(=C\c1ccc([N+](=O)[O-])o1)NC(=O)c1ccccc1,> 16 µM (inactive)
15,c1ccc(Sc2cccc3ccccc23)c(CNC2=NCCN2)c1,9.52 µM
16,CC(=O)c1c(C)nc(-c2cccc([N+](=O)[O-])c2)n1O,3.29 µM
17,CCCS(=O)(=O)c1nnnn1-c1cccc(OC)c1,> 15 µM (inactive)
18,O=C1C2CCN(CC2)C1Cc1ccc(OCc2ccccc2)cc1 (stereo unspecified),2.19 µM
19,O=C(N/N=C/c1sc(N2CCOCC2)nc1-c1ccccc1)c1cccc(S(=O)(=O)N2CCOCC2)c1,1.15 µM

row,Compound,EC50
1,CCCCC(=O)NC(c1ccc(Cl)cc1)c1ccc2cccnc2c1O (stereo unspecified),0.502 µM
2,CCOc1cc(/C=C(\C#N)C(=O)NCC2CCCO2)ccc1OCC(N)=O (stereo unspecified),> 16 µM (inactive)
3,Cc1ccsc1C(=O)OCC(=O)Nc1nnc(-c2ccccc2)o1,3.12 µM
4,Cc1ccsc1/C=N/NS(=O)(=O)c1ccc([N+](=O)[O-])cc1,7.37 µM
5,COc1ccc(NC(=O)c2cc([N+](=O)[O-])ccc2O)cc1,3.92 µM
6,O=C(Oc1c(Cl)cc(Cl)c2cccnc12)N1CCOCC1,> 15 µM (inactive)
7,O=C(NNC(=S)NC(=O)c1ccccc1)c1ccc([N+](=O)[O-])cc1,4.12 µM
8,COc1cccc2c(SCC(=O)N/N=C/c3ccc(O)c(O)c3)cc(C)nc12,> 16 µM (inactive)
9,N#C/C(=C\c1ccc(OC(=O)c2cccs2)cc1)c1nc2ccccc2[nH]1,3.21 µM
10,CC(=O)N(Cc1ccc(F)cc1)C1=C(NCCc2ccccc2)C(=O)c2ccccc2C1=O,0.33 µM
11,Cc1ccc(C(=O)Cn2cccn2)cc1,12.7 µM
12,C=CCn1c(N)nc2ccccc21,2.72 µM
13,COc1cccc(C(C(=O)NC2CCCC2)N(C(=O)c2ccco2)c2ccc(-n3cnnn3)c(C)c2)c1OC (stereo unspecified),> 15 µM (inactive)
14,CCCCn1c(CN2CCN(C(=O)OCC)CC2)nc2c1c(=O)n(C)c(=O)n2C,> 15 µM (inactive)
15,CCCn1nc([N+](=O)[O-])c(C(C#N)c2nc3ccccc3s2)c(Cl)c1=O (stereo unspecified),1.4 µM
16,O=c1c2cc(Br)ccc2nc(-c2cccc(C(F)(F)F)c2)n1O,1.04 µM
17,O=C(/C=C/c1ccc([N+](=O)[O-])o1)NNC(=O)c1ccc(F)cc1,1.19 µM
18,Nc1nonc1-n1nnc(C(=O)N/N=C/c2cc(Cl)ccc2O)c1CN1CCCCCC1,1.82 µM
